Earlier results on two compounds are cited in patent US9446015B2, “Quinone based nitric oxide donating compounds for ophthalmic use” (NICOX SCIENCE IRELAND, priority 2012, dated 2016).

This series deals with lipidic peroxidation of membrane lipids in rat hepatocytes (hepatic microsomal membranes). Conditions: Method B; from Chegaev et al.; read-out: Antioxidant activity IC50 μM (CL 95%); cited from earlier work.

For the compound `CC1=NN(c2ccccc2)C(=O)C1` [Edavarone], the IC50 was 17 µM.

With `COc1ccc2[nH]cc(CCNC(C)=O)c2c1` [Melatonin], the IC50 is 476 µM.
